Assay: refractive index (Na D-line) (dimensionless); xn = mol fraction of the nth substance listed
Settings: Liquid, Standard Abbe refractometry

Cc1ccccc1C [1,2-dimethylbenzene] + C1COCCO1
refractive index
Settings	288.15 K	293.15 K	298.15 K	303.15 K	308.15 K	313.15 K	318.15 K
x2 = 0	1.5083	1.5055	1.5029	1.5002	1.4975	1.4948	1.4921
x2 = 0.0672	1.5029	1.5001	1.4974	1.4946	1.4918	1.489	1.4862
x2 = 0.1391	1.4972	1.4944	1.4917	1.4889	1.4861	1.4833	1.4804
x2 = 0.2103	1.4914	1.4886	1.4858	1.4831	1.4803	1.4775	1.4746
x2 = 0.2853	1.4853	1.4825	1.4798	1.4771	1.4743	1.4715	1.4687
x2 = 0.3543	1.4796	1.4769	1.4742	1.4714	1.4687	1.4659	1.4632
x2 = 0.4293	1.4734	1.4707	1.4681	1.4654	1.4627	1.46	1.4573
x2 = 0.5092	1.4667	1.4641	1.4615	1.4589	1.4562	1.4535	1.4509
x2 = 0.581	1.4606	1.458	1.4554	1.4528	1.4502	1.4476	1.445
x2 = 0.6518	1.4545	1.452	1.4495	1.4469	1.4444	1.4418	1.4392
x2 = 0.7248	1.4482	1.4457	1.4433	1.4408	1.4383	1.4357	1.4332
x2 = 0.7888	1.4427	1.4402	1.4378	1.4354	1.4329	1.4304	1.4279
x2 = 0.8595	1.4365	1.4342	1.4318	1.4295	1.4271	1.4246	1.4221
x2 = 0.9298	1.4305	1.4282	1.4259	1.4236	1.4213	1.419	1.4166

Cc1cc(C)cc(C)c1 [1,3,5-trimethylbenzene] + C1COCCO1
refractive index
Settings	288.15 K	293.15 K	298.15 K	303.15 K	308.15 K	313.15 K	318.15 K
x2 = 0	1.502	1.4995	1.4969	1.4944	1.4918	1.4893	1.4868
x2 = 0.0696	1.4969	1.4942	1.4915	1.4888	1.4861	1.4834	1.4807
x2 = 0.1408	1.4916	1.4889	1.4862	1.4835	1.4807	1.4779	1.4751
x2 = 0.2098	1.4865	1.4838	1.4811	1.4784	1.4756	1.4729	1.4701
x2 = 0.28	1.4812	1.4786	1.4758	1.4731	1.4703	1.4676	1.4648
x2 = 0.3558	1.4755	1.4729	1.4702	1.4675	1.4648	1.4621	1.4593
x2 = 0.4276	1.4701	1.4675	1.4648	1.4622	1.4595	1.4568	1.4542
x2 = 0.5066	1.4641	1.4615	1.4589	1.4563	1.4537	1.451	1.4484
x2 = 0.5801	1.4584	1.4558	1.4532	1.4506	1.448	1.4454	1.4428
x2 = 0.6548	1.4525	1.45	1.4474	1.4449	1.4423	1.4397	1.4371
x2 = 0.7227	1.447	1.4445	1.442	1.4395	1.437	1.4344	1.4318
x2 = 0.7936	1.4412	1.4388	1.4363	1.4338	1.4313	1.4288	1.4263
x2 = 0.8663	1.4354	1.433	1.4306	1.4282	1.4257	1.4233	1.4208
x2 = 0.9319	1.43	1.4277	1.4254	1.4231	1.4208	1.4184	1.4161

Cc1cccc(C)c1 [1,3-dimethylbenzene] + C1COCCO1
refractive index
Settings	288.15 K	293.15 K	298.15 K	303.15 K	308.15 K	313.15 K	318.15 K
x2 = 0	1.4999	1.4974	1.4948	1.4922	1.4896	1.487	1.4844
x2 = 0.0938	1.4933	1.4907	1.488	1.4853	1.4826	1.4799	1.4772
x2 = 0.1532	1.489	1.4864	1.4837	1.4811	1.4783	1.4756	1.4728
x2 = 0.2046	1.4852	1.4826	1.4799	1.4772	1.4745	1.4718	1.4691
x2 = 0.2698	1.4805	1.4779	1.4753	1.4726	1.4699	1.4672	1.4645
x2 = 0.3374	1.4755	1.473	1.4704	1.4677	1.4651	1.4624	1.4597
x2 = 0.4002	1.4709	1.4684	1.4658	1.4632	1.4606	1.458	1.4553
x2 = 0.4714	1.4656	1.4631	1.4606	1.458	1.4555	1.4529	1.4503
x2 = 0.5487	1.4598	1.4574	1.4549	1.4524	1.4498	1.4473	1.4447
x2 = 0.63	1.4536	1.4512	1.4487	1.4462	1.4437	1.4412	1.4387
x2 = 0.7182	1.4468	1.4444	1.442	1.4395	1.4371	1.4346	1.4321
x2 = 0.8035	1.4401	1.4378	1.4354	1.4329	1.4305	1.428	1.4256
x2 = 0.8708	1.4348	1.4325	1.4302	1.4279	1.4255	1.4231	1.4206
x2 = 0.9324	1.4299	1.4277	1.4255	1.4232	1.4209	1.4186	1.4163
